± gives the expanded uncertainty stated by the source.
Assay: activity coefficient (dimensionless); of the first substance listed, at infinite dilution; xn = mol fraction of the nth substance listed
Conditions: 101.33 kPa, Liquid, Chromatography, x1 = 0

SMILES	activity coefficient (358.15 K)	activity coefficient (368.15 K)	activity coefficient (378.15 K)	activity coefficient (388.15 K)	activity coefficient (398.15 K)	activity coefficient (408.15 K)
CCC(=O)CC [pentan-3-one] + CCCC[P+](CCCC)(CCCC)CCCC.O=S(=O)([N-]S(=O)(=O)C(F)(F)F)C(F)(F)F	0.629 ± 0.043	0.66 ± 0.045	0.69 ± 0.05	0.721 ± 0.048	0.75 ± 0.049	0.781 ± 0.051
CCCCC [pentane] + CCCC[P+](CCCC)(CCCC)CCCC.O=S(=O)([N-]S(=O)(=O)C(F)(F)F)C(F)(F)F	3.61 ± 0.25	3.62 ± 0.25	3.65 ± 0.25	3.66 ± 0.25	3.68 ± 0.25	3.7 ± 0.25
CCCO [propan-1-ol] + CCCC[P+](CCCC)(CCCC)CCCC.O=S(=O)([N-]S(=O)(=O)C(F)(F)F)C(F)(F)F	1.53 ± 0.1	1.47 ± 0.1	1.42 ± 0.09	1.37 ± 0.09	1.32 ± 0.09	1.28 ± 0.08
CC(C)O [propan-2-ol] + CCCC[P+](CCCC)(CCCC)CCCC.O=S(=O)([N-]S(=O)(=O)C(F)(F)F)C(F)(F)F	1.47 ± 0.1	1.42 ± 0.09	1.37 ± 0.09	1.33 ± 0.09	1.29 ± 0.08	1.26 ± 0.08
CCCc1ccccc1 [propylbenzene] + CCCC[P+](CCCC)(CCCC)CCCC.O=S(=O)([N-]S(=O)(=O)C(F)(F)F)C(F)(F)F	1.88 ± 0.13	1.93 ± 0.13	1.98 ± 0.13	2.03 ± 0.14	2.07 ± 0.14	2.12 ± 0.14
C=Cc1ccccc1 [styrene] + CCCC[P+](CCCC)(CCCC)CCCC.O=S(=O)([N-]S(=O)(=O)C(F)(F)F)C(F)(F)F	1.01 ± 0.06	1.05 ± 0.07	1.1 ± 0.07	1.14 ± 0.07	1.18 ± 0.08	1.23 ± 0.08
C1CCOC1 [tetrahydrofuran] + CCCC[P+](CCCC)(CCCC)CCCC.O=S(=O)([N-]S(=O)(=O)C(F)(F)F)C(F)(F)F	0.622 ± 0.043	0.653 ± 0.045	0.682 ± 0.046	0.712 ± 0.047	0.742 ± 0.049	0.772 ± 0.05
c1ccsc1 [thiophene] + CCCC[P+](CCCC)(CCCC)CCCC.O=S(=O)([N-]S(=O)(=O)C(F)(F)F)C(F)(F)F	0.782 ± 0.051	0.812 ± 0.053	0.842 ± 0.054	0.872 ± 0.056	0.9 ± 0.057	0.929 ± 0.059
Cc1ccccc1 [toluene] + CCCC[P+](CCCC)(CCCC)CCCC.O=S(=O)([N-]S(=O)(=O)C(F)(F)F)C(F)(F)F	1.11 ± 0.07	1.16 ± 0.07	1.2 ± 0.08	1.24 ± 0.08	1.28 ± 0.08	1.32 ± 0.09
C=COC(C)=O [vinyl acetate] + CCCC[P+](CCCC)(CCCC)CCCC.O=S(=O)([N-]S(=O)(=O)C(F)(F)F)C(F)(F)F	0.983 ± 0.062	1.01 ± 0.06	1.04 ± 0.07	1.07 ± 0.07	1.1 ± 0.07	1.13 ± 0.07
O [water] + CCCC[P+](CCCC)(CCCC)CCCC.O=S(=O)([N-]S(=O)(=O)C(F)(F)F)C(F)(F)F	4.2 ± 0.29	3.85 ± 0.26	3.53 ± 0.24	3.26 ± 0.22	3.02 ± 0.21	2.81 ± 0.19
